# From PMC8407143 (Bioorganic & medicinal chemistry letters, 2021)
# Entries after “also recorded” stand apart in the source; their conditions may differ.
# Tests used:
# [1] = biological target: T1, E. coli IspF (Escherichia coli, UniProt P62617); conditions: cited from earlier work
# T1 sequence (P62617 1-159): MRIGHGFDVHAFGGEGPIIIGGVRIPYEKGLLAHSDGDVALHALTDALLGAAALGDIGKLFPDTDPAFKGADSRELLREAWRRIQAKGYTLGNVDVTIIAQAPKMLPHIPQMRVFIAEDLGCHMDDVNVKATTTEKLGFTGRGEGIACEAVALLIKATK
# [2] = biological target: B. pseudomallei IspF (BpIspF) (Burkholderia pseudomallei, UniProt Q3JRA0); assay: biochemical; type: binding; conditions: for Kd: KD,app
# B. pseudomallei IspF (BpIspF), sequence (Q3JRA0 whole entry, looked up): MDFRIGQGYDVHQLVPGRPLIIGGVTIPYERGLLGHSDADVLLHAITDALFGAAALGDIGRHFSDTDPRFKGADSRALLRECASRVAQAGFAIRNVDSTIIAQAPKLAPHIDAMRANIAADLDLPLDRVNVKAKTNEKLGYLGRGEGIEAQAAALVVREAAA
# [3] = biological target: T1, E. coli IspF; type: binding; conditions: pH 7.4
# [4] = biological target: T1, E. coli IspF; conditions: cited from earlier work; remark: listed apart in the source
# [5] = biological target: BpIspF (Burkholderia pseudomallei, UniProt Q3JRA0); type: binding
# BpIspF, sequence (Q3JRA0 whole entry, looked up): as above
smiles,measurement,setting,value
"CC(C)=CCC/C(C)=C/CC/C(C)=C/CO[P@@](=O)(O)OP(=O)(O)O (stereo in doubt) [farnesyl diphosphate (FPP), farnesyl diphosphate]",direct feedback inhibition of E. coli IspF (in words),[1],did not observe direct feedback inhibition
N[C@H](Cc1c[nH]c2ccccc12)C(=O)NO [D-tryptophan hydroxamate],change in affinity relative to L-tryptophan hydroxamate (3),[2],less than a twofold drop in affinity; also recorded: less than two-fold weaker
same,N (stoichiometry),[2]; pH 7.4,0.7
"N[C@H](Cc1c[nH]c2ccccc12)C(=O)O [D-tryptophan, reference compound]",Kd,[2],> 1000 µM
same,binding (in words),[2]; pH 7.4,undetectable binding; also recorded: did not show appreciable binding
"N[C@@H](Cc1c[nH]c2ccccc12)C(=O)NO [L-tryptophan hydroxamate (3), L-tryptophan hydroxamate]",binding at pH 6.0 compared to pH 7.4 (fold weaker),[2],approximately 25 fold
same,N (stoichiometry),[2]; pH 7.4,1.5 ± 0.2
same,N (stoichiometry),[2]; pH 8,1.4 ± 0.4
same,N (stoichiometry),[3],1.2 ± 0.3
same,Kd,[4],~2 µM
same,"Relative Percent Saturation Transfer, proton A",[5],100%
same,"Relative Percent Saturation Transfer, proton B",[5],60–65%
same,"Relative Percent Saturation Transfer, proton C",[5],80–85%
same,"Relative Percent Saturation Transfer, proton D",[5],75–80%
same,"Relative Percent Saturation Transfer, proton E",[5],80–85%
same,"Relative Percent Saturation Transfer, proton F",[5],25–30%
same,"Relative Percent Saturation Transfer, proton G",[5],50–55%
"N[C@@H](Cc1c[nH]c2ccccc12)C(=O)O [L-tryptophan, reference compound]",Kd,[2],> 1000 µM
same,binding (in words),[2]; pH 7.4,did not show appreciable binding
"CC(C)=CCC/C(C)=C/COP(=O)(O)OP(=O)(O)O [geranyl diphosphate (GPP), geranyl diphosphate, reference compound]",interaction with BpIspF by STD NMR (in words),[5],did not show significant interaction
